Where two headings read alike, the source gives them in different places.
What was measured:
AQ STING (G230A-R293Q) = molecular target: T1, AQ STING (G230A-R293Q) (Homo sapiens, UniProt Q86WV6, G230A/H232R/R293Q); test: Differential scanning fluorimetry (DSF) with AQ STING; format: binding; details: thermal shift vs apoprotein; 150 μM CDN; truncated human AQ STING 0.1 mg/ml
T1 construct: 8xHis (N, cleaved yes); SUMO (N, cleaved yes); made in house; host or cells: E. coli Rosetta-gami B (DE3)
Outline: (§1)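 […] STING proteins, alone or with CDNs, in triplicate, thermally denatured on a real-time PCR cycler. Denaturing temperatures taken from first-derivative curves; shift = mean Tm of STING–CDN complex minus mean Tm of apoprotein.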

[1] = test system: peripheral blood mononuclear cells (PBMC); test: Peripheral blood mononuclear cell (PBMC) assay; format: cell-based; details: PBMC, 1 h with compounds, washed, 15 hour incubation, average of one to four donors
Outline: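 PBMCs exposed to serially diluted compound for 1 h at 37° C, 5% CO2, then washed twice and cultured 15 h in compound-free medium. IFN-α, IFN-γ and TNF-α measured in collected medium by multiplex bead immunoassay. Values averaged over runs from one to four donors.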

WT STING [2] = molecular target: T2, WT STING (Homo sapiens, UniProt Q86WV6, H232R); test: Digitonin assay using 293T wtSTING-FL reporter cells; format: cell-based; parameters: host or cells: 293T (ATCC CRL-3216), stably transfected, with 4xISRE firefly luciferase reporter; details: 293T wtSTING-FL cells, ISRE firefly luciferase; compounds in Digitonin buffer 30 minutes, then 5 hours; 8-point curve
Target sequence in this assay (Q86WV6 whole entry H232R): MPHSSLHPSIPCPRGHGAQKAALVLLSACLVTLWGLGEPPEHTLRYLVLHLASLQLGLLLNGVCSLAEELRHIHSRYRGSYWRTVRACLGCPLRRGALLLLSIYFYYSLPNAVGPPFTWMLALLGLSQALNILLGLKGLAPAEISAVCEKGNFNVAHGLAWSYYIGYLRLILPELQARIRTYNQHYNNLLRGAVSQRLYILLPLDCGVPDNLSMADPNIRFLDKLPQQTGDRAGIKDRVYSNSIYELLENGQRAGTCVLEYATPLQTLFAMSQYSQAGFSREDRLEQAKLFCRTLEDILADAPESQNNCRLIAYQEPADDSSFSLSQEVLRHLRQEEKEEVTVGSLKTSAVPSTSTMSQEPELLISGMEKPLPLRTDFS

WT STING [3] = molecular target: T2, WT STING; test: 293T WT STING standard reporter assay; format: cell-based; parameters: host or cells: 293T (ATCC CRL-3216), stably transfected, with 4xISRE firefly luciferase reporter; details: 293T wtSTING-FL cells, ISRE firefly luciferase; no digitonin; 7 hours with compounds; 8-point curve
Excerpt: Two complementary oligonucleotides of the sequence […] […] […] […] […] The oligonucleotides were mixed in equal molar amounts, hybridized, and cleaved by restriction endonucleases HindIII (cat. #. R0104S, NEB, Ipswich, USA) and BglII (cat. #R0144S, NEB, Ipswich, USA). Ultimately, they were ligated into plasmid pGL4.27 (cat. #E6651, Promega, Madison, USA) linearized with the same enzymes. As result the sequence with four ISRE sites was placed upstream of the minimum promoter of firefly luciferase reporter gene.
After 5 minutes incubation at room temperature (RT), 250 μL of the mixture was added dropwise to the cells in one well. Cells were incubated 36 hours at 37° C. with 5% CO2, and then detached with 0.05% Trypsin and 0.22 g/L EDTA (both cat. #L0941, Biowest, Riverside, USA).
Transfected cells were seeded onto poly-D-lysine coated six well plates at density 50,000 cells per 1 cm^2 in DMEM medium with high glucose containing 10% heat inactivated FBS, 30 μg/mL blasticidin (cat. #ant-b1-05, InvivoGen, San Diego, USA), 0.06 mg/ml Penicillin G and 0.1 mg/ml Streptomycin Sulfate (both cat. #. L0018, Biowest, Riverside, USA). The medium was replenished every 3-4 days until visible colonies of cells resistant to blasticidin were formed.
Blasticidin resistant cells stably expressing WT STING were further transfected with […] plasmid following the same procedure as described above. […] Homogeneous culture of stably double transfected cells was prepared by limiting dilution of cells in 96 well plates and wells with cells were selected that originated from a single cell.
The medium was removed next day and three-fold serial dilutions of compounds in 100 μl medium were added to the cells. The plates with cells were incubated for 7 hours at 37° C. with 5% CO2. After 50 μl of the medium was removed, 30 μl of ONE-Glo™ Luciferase Assay System reagent (cat. #E6120, Promega, Madison, USA) was added to each well and luminescence was read on Synergy H1 (Biotek, Winooski, USA).
Target sequence in this assay (Q86WV6 whole entry H232R): as above

WT STING [4] = molecular target: T2, WT STING; test: Differential scanning fluorimetry (DSF) with WT STING; format: binding; parameters: 8xHis (N, cleaved yes); SUMO (N, cleaved yes); made in house; host or cells: E. coli Rosetta-gami B (DE3); details: thermal shift vs apoprotein; 150 μM CDN; truncated human WT STING 0.1 mg/ml
Outline: as §1
Target sequence in this assay (Q86WV6 140-343 H232R): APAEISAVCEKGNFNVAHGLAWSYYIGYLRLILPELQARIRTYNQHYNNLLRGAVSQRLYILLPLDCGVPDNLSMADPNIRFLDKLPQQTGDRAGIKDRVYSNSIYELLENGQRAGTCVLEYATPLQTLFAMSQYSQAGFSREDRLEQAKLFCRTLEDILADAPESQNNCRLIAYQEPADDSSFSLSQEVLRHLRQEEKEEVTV

[5] = interferon-alpha level, read-out: PBMC EC50 (μM) IFN-α
[6] = interferon-gamma level, read-out: PBMC EC50 (μM) IFN-γ
[7] = tumor necrosis factor-alpha level, read-out: PBMC EC50 (μM) TNF-α

T1 sequence (Q86WV6 140-343 G230A/H232R/R293Q): as the sequence (Q86WV6 140-343 H232R) above, with G91A, R154Q counted along it

Row | SMILES | DSF ΔTm (° C.) AQ STING (AQ STING (G230A-R293Q)) [°C] | EC50 (WT STING [2]) [µM] | EC50 (WT STING [3]) [µM] | DSF ΔTm (° C.) WT STING (WT STING [4]) [°C] | ΔTm at 150 µM (AQ STING (G230A-R293Q)) [°C] | ΔTm at 150 µM (WT STING [4]) [°C] | EC50 [1, 5] [µM] | EC50 [1, 6] [µM] | EC50 [1, 7] [µM]
1 | Nc1ncnc2c1ncn2[C@H]1CC2OP(=O)(O)OC[C@H]3O[C@@H](n4cnc5c(N)ncnc54)C(F)C3OP(=O)(O)OC[C@H]2C1 (stereo partly drawn) [Compound 119, (2R, 3R, 3aR, 7aR, 9R, 10aS, 14aR)-2,9-bis(6-amino-9H-purin-9-yl)-3-fluoro-5,12-dihydroxydecahydro-2H-cyclopeanta[d]furo[3,2-j][1,3,7,9]tetraoxa[2,8]diphosphacyclododecine 5,12-dioxide] | – | 0.05 | 11.7 | – | 16.6 | 5.7 | 265 | 169 | 146
2 | Nc1ncnc2c1ncn2[C@@H]1C[C@@H]2COP(=O)(O)OC3C(F)[C@H](n4cnc5c(N)ncnc54)C[C@@H]3COP(=O)(O)OC2C1F (stereo partly drawn) [Compound 121, (2R,3S,3aR,7aR,9R,10S,10aR,14aR)-2,9-bis(6-amino-9H-purin-9-yl)-3,10-difluoro-5,12-dihydroxydodecahydrodicyclopenta[d,j][1,3,7,9]tetraoxa[2,8]-diphosphacyclododecine 5,12-dioxide] | – | 0.05 | 2.6 | – | 13.9 | 7.6 | 254 | 200 | 254
3 | Nc1ncnc2c1ncn2[C@@H]1C[C@@H]2COP(=O)(O)OC3C[C@H](n4cnc5c(N)ncnc54)O[C@@H]3COP(=O)(O)OC2C1F (stereo partly drawn) [Compound 124, (2R,3aS,7aR,9R,10S,10aR,14aR)-2,9-bis(6-amino-9H-purin-9-yl)-10-fluoro-5,12-dihydroxydecahydro-2H-cyclopenta[d]furo[3,2-j][1,3,7,9]tetraoxa[2,8]diphosphacyclododecine 5,12-dioxide] | – | 0.05 | 4.9 | – | 12.8 | 6.2 | 290 | 43 | 223

Compounds with a lower EC50 (WT STING [2]), results first:

Row | DSF ΔTm (° C.) AQ STING (AQ STING (G230A-R293Q)) [°C] | EC50 (WT STING [2]) [µM] | EC50 (WT STING [3]) [µM] | DSF ΔTm (° C.) WT STING (WT STING [4]) [°C] | ΔTm at 150 µM (AQ STING (G230A-R293Q)) [°C] | ΔTm at 150 µM (WT STING [4]) [°C] | SMILES | EC50 [1, 5] [µM] | EC50 [1, 6] [µM] | EC50 [1, 7] [µM]
4 | 17.5 | 0.01 | 0.4 | 12.2 | – | – | Nc1ncnc2c1ncn2[C@@H]1C[C@@H]2COP(=O)(S)O[C@@H]3[C@@H](COP(=O)(S)O[C@H]2[C@H]1F)C[C@@H](n1cnc2c(N)ncnc21)[C@@H]3F (single isomer, unassigned) [Compound 128b] | 27 | 6.5 | 19
5 | 20.8 | 0.007 | 0.3 | 13.7 | – | – | Nc1nc2c(ncn2[C@@H]2C[C@@H]3COP(=O)(S)O[C@H]4[C@@H](F)[C@H](n5cnc6c(N)ncnc65)O[C@@H]4COP(=O)(S)O[C@H]3C2)c(=O)[nH]1 (single isomer, unassigned) [Compound 129d] | 27 | 23 | 25
6 | – | 0.01 | 1.9 | – | 17 | 10.3 | Nc1ncnc2c1ncn2[C@@H]1C[C@@H]2COP(=O)(O)OC3C(F)[C@H](n4cnc5c(N)ncnc54)O[C@@H]3COP(=O)(O)OC2C1F (stereo partly drawn) [Compound 120, (2R,3R,3aR,7aR,9R,10S,10aR,14aR)-2,9-bis(6-amino-9H-purin-9-yl)-3,10-difluoro-5,12-dihydroxydecahydro-2H-cyclopenta[d]furo[3,2-j][1,3,7,9]tetraoxa[2,8]diphosphacyclododecine 5,12-dioxide] | 64 | 36.6 | 72.6
